What all share (experiment): DTP human tumour cell line panel, 48 h
In assay [1] the test system is A498.
Assay [2] deals with A549.
The subject of assay [3] is CAKI-1.
Assay [4] has as its system DU-145.
In assay [5] the test system is HCT-15.
Assay [6] relates to MDA-MB-231.
Assay [7] deals with NCI-H226.
For assay [8], the system named is NCI/ADR-RES.
The test system of assay [9] is PC-3.
The test system of assay [10] is SK-MEL-28.
For assay [11], the system named is SK-MEL-2.
Assay [12] relates to SNB-19.
Assay [13] relates to OVCAR-4.

Structures are written as SMILES.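 Dose response: 5 concentrations. Exposure: 48 h. Format: 96-well plates. Endpoint: linear interpolation; highest concentration if not reached. Abbreviation: GI50, concentration required for 50% inhibition of growth.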 Active and inactive are the calls of the source. No stated cut-off is given here; in the data, active = GI50 up to about 1.1 µM and inactive = higher. Where a SMILES comes first, the peptide text is derived from it. The star is where a group is joined. Boc = CC(C)(C)OC(=O)*

What is called GI50 is the concentration giving 50% growth inhibition. Take `BrP(NC1CCCCCC1)(c1ccccc1)(c1ccccc1)c1ccccc1`: the GI50 was 0.986 µM (active) in assay [1]; 5.94 µM (inactive) in [2]; 3.98 µM (inactive) in assay [3]; 8.26 µM (inactive) in [4]; 18.8 µM in assay [5]; 3.56 µM (inactive) in assay [6]. The GI50 in [7] is 13.5 µM (inactive); in [8], 44 µM (inactive); in [9], 1.56 µM (inactive); in assay [10], 2.4 µM (inactive); in assay [11], 2.44 µM (inactive); in assay [12], 4.66 µM (inactive).

Take `CCN(CCO)C(=O)C1(c2ccccc2)CCCCC1`: the GI50 in [1] is > 10 µM (inactive); in [2] it was > 10 µM (inactive); in assay [3], > 10 µM (inactive); in assay [4] it was > 10 µM (inactive); in assay [5] it was above 10 µM; in assay [6], > 10 µM (inactive). For the same compound, the GI50 in [7], in [8], in [13], in assay [9], in assay [10] and in assay [11] was > 10 µM (inactive) in each case. Moreover, the GI50 in [12] was > 10 µM (inactive).

In the case of `CC(C)=CCN1c2ccc(Cl)cc2NC(=O)CC1C` (stereo not given), the GI50 in assay [1] is 21.8 µM (inactive); in assay [2], 27.2 µM (inactive); in [3], 15.8 µM (inactive); in assay [4], 42.1 µM (inactive); in assay [5], 31.4 µM; in [6] it was 19.3 µM (inactive). Further, the GI50 in [7] is 7.94 µM (inactive); in [13], 22 µM (inactive); in [9] it was 23.8 µM (inactive); in [10] it was 41.9 µM (inactive); in [11], 20.6 µM (inactive); in [12] it was 36.9 µM (inactive).

Take `Cc1ccc(S(=O)(=O)NC(=O)NC(CCCCNC(=N)N)C(=O)O)cc1` (stereo not given): the GI50 was > 100 µM (inactive) in [2]; > 100 µM (inactive) in [4]; above 100 µM in assay [5]; > 100 µM (inactive) in assay [6]; > 100 µM (inactive) in [8]; > 100 µM (inactive) in assay [13]. Further, the GI50 in assay [9], in assay [10], in [11] and in assay [12] was > 100 µM (inactive) each time.

On to `CN(C)Cc1cc(/N=N/c2ccc(Cl)cc2)ccc1OC(=O)c1ccccc1`, for which the GI50 in assay [1] is 15.5 µM (inactive); in assay [2], 3.26 µM (inactive); in assay [4], 17 µM (inactive); in [5], 12.9 µM; in assay [6], 14.1 µM (inactive); in assay [7] it was 21.9 µM (inactive). In addition, the GI50 in assay [8] was 17.7 µM (inactive); in [13], 14.1 µM (inactive); in assay [9], 15.6 µM (inactive); in [10] it was 16.1 µM (inactive); in [12], 15 µM (inactive).

As for `CC(=O)[C@@]1(c2ccccc2)CC2(CCN(C)CC2)O[C@H]1C`, the GI50 was > 100 µM (inactive) in assay [1]; > 100 µM (inactive) in assay [2]; > 100 µM (inactive) in [3]; > 100 µM (inactive) in assay [4]; above 100 µM in assay [5]; > 100 µM (inactive) in [6]. Moreover, the GI50 in assay [7], in assay [8], in [13], in assay [10] and in assay [12] was > 100 µM (inactive) throughout.

As for `Cc1nc2n(c1/C=C1/C(=O)Nc3cccc(Cl)c31)CCS2`, the GI50 in [1] was 30 µM (inactive); in assay [2], 56.1 µM (inactive); in [3], 46.3 µM (inactive); in assay [4], 48.1 µM (inactive); in [5], 89.1 µM; in [6], 18.7 µM (inactive). The GI50 in [8] was 31.1 µM (inactive); in assay [9], 38 µM (inactive); in assay [10] it was > 100 µM (inactive); in assay [11], 17.1 µM (inactive); in assay [12], 27.2 µM (inactive).

Turning to `COP(C)(=O)/C(Cc1ccccc1)=N\O` (stereo not given), the GI50 in [2] was > 100 µM (inactive); in [3], > 100 µM (inactive); in assay [4] it was > 100 µM (inactive); in assay [5], above 100 µM; in [6], > 100 µM (inactive); in [7], > 100 µM (inactive). In addition, the GI50 in assay [8], in [13], in assay [9], in [10], in assay [11] and in assay [12] was > 100 µM (inactive) each time.

Consider `CN1CN(c2ccccc2)C2(CCN(CCCC(=O)c3cccs3)CC2)C1=O`, for which the GI50 is 29.3 µM (inactive) in assay [2]; 33.1 µM (inactive) in assay [3]; 36.6 µM (inactive) in [4]; 34.7 µM in assay [5]; 50.9 µM (inactive) in assay [6]; 34.5 µM (inactive) in assay [7]. Moreover, the GI50 was 41 µM (inactive) in assay [8], 94.8 µM (inactive) in assay [9], > 100 µM (inactive) in [10] and 47.5 µM (inactive) in [12].

Regarding `Cc1cnc2nc(-c3ccc4ccccc4c3)cc(O)c2c1`, the GI50 was 0.421 µM (active) in assay [1]; 0.625 µM (active) in assay [2]; 0.408 µM (active) in assay [4]; 0.439 µM in assay [5]; 1.05 µM (active) in assay [6]; 0.504 µM (active) in assay [7]. Also, the GI50 is 0.349 µM (active) in [8]; 0.659 µM (active) in [13]; > 100 µM (inactive) in [10]; > 100 µM (inactive) in [11]; 0.908 µM (active) in assay [12].

`Cc1nc2ccc(S(=O)(=O)Nc3nccs3)cc2c(=O)n1NS(=O)(=O)c1nccs1`: the GI50 in [1] is > 100 µM (inactive); in assay [3], > 100 µM (inactive); in [4], > 100 µM (inactive); in assay [5], above 100 µM; in assay [6], > 100 µM (inactive); in [7], > 100 µM (inactive). For the same compound, the GI50 in assay [8] was > 100 µM (inactive); in assay [13], > 100 µM (inactive); in [9], 86.9 µM (inactive); in assay [10] it was > 100 µM (inactive); in assay [11], > 100 µM (inactive); in assay [12], > 100 µM (inactive).

On to `CCOC(=O)c1csc(NC(=O)CCN2CCCCC2)n1`, for which the GI50 in [1] was > 100 µM (inactive); in assay [2], > 100 µM (inactive); in assay [3] it was > 100 µM (inactive); in assay [4], > 100 µM (inactive); in assay [5] it was above 100 µM; in assay [6], > 100 µM (inactive). The GI50 in assay [8], in assay [13], in assay [9], in assay [10], in [11] and in assay [12] was > 100 µM (inactive) throughout.

Consider `COC(=O)[C@H](Cc1ccc(O)cc1)NC(=O)[C@H](Cc1ccc(O)cc1)NC(=O)OC(C)(C)C` (Boc-Tyr-Tyr-OMe), for which the GI50 in [2] is > 100 µM (inactive); in assay [3], > 100 µM (inactive); in [4], > 100 µM (inactive); in assay [5] it was above 100 µM; in assay [6] it was 60 µM (inactive); in assay [7] it was > 100 µM (inactive). Also, the GI50 in [8], in assay [9] and in [12] was > 100 µM (inactive) throughout.

In the case of `Oc1cc(O)c2c(c1)O[C@H](c1ccc(O)c(O)c1)[C@@H](O)C2` [CIANIDANOL], the GI50 in assay [2] is > 100 µM (inactive); in assay [3], > 100 µM (inactive); in [4], > 100 µM (inactive); in assay [5] it was above 100 µM; in assay [6] it was > 100 µM (inactive); in assay [7], > 100 µM (inactive). Also, the GI50 in [8], in assay [13], in assay [9], in assay [10], in [11] and in [12] was > 100 µM (inactive) throughout.

Turning to `C=CC[N+]12CN3CN(CN(C3)C1)C2`, the GI50 was 32.8 µM (inactive) in [1]; 31.3 µM (inactive) in assay [2]; 20.5 µM (inactive) in assay [3]; 21.1 µM (inactive) in assay [4]; 22.6 µM in [5]; 32.2 µM (inactive) in [6]. Moreover, the GI50 in assay [8] was 26.1 µM (inactive); in assay [13], 26.2 µM (inactive); in assay [9], 31.4 µM (inactive); in assay [10] it was 21.3 µM (inactive); in [11] it was 42.1 µM (inactive); in assay [12], 40 µM (inactive).

Turning to `CC1(c2nc3ccccc3[nH]2)CCC(C#N)C(C)(C)O1` (stereo not given), the GI50 in [2] is > 100 µM (inactive); in [3] it was > 100 µM (inactive); in assay [4], > 100 µM (inactive); in [5] it was above 100 µM; in assay [6], > 100 µM (inactive); in [7], > 100 µM (inactive). For the same compound, the GI50 in assay [8], in [13], in [9], in [10], in [11] and in [12] was > 100 µM (inactive) in each case.

Turning to `C(=C\Nc1ccc(Oc2ccccc2)cc1)/C=N/c1ccc(Oc2ccccc2)cc1`, the GI50 in assay [1] is 16.2 µM (inactive); in assay [2] it was 22.1 µM (inactive); in assay [3], 18.7 µM (inactive); in [4], 20.1 µM (inactive); in assay [5], 19.5 µM; in assay [6], 17.1 µM (inactive). Also, the GI50 in [7] was 55.3 µM (inactive); in [8], 16.9 µM (inactive); in assay [13], 17.1 µM (inactive); in assay [9], 15.1 µM (inactive); in [10], 16.6 µM (inactive); in assay [12], 17.3 µM (inactive).

With `C=Cc1cnc([N+](=O)[O-])n1C`, the GI50 is 34.3 µM (inactive) in [1]; 56 µM (inactive) in [2]; 42.5 µM (inactive) in assay [3]; 37.1 µM (inactive) in assay [4]; 50.2 µM in assay [5]; > 100 µM (inactive) in assay [6]. The GI50 in [7] was > 100 µM (inactive); in [8], > 100 µM (inactive); in assay [9], 40.8 µM (inactive); in [10], 72.1 µM (inactive); in [12] it was > 100 µM (inactive).

The values are drawn from ChEMBL document CHEMBL1201862, “PubChem BioAssay data set” (2004).
